Test results as given in patent US9156872B2, “2′-azido substituted nucleoside derivatives and methods of use thereof for the treatment of viral diseases” (priority 2011, dated 2015).

tested on: HCV replicon cells; test: Cell-based HCV replicon assay (replicon RNA by Taqman real time PCR); conditions: HCV replicon 1b, cells harvested on day 3; read-out: 1b EC50

Structure (SMILES) | EC50 [nM]
CCCOP1(=O)OC[C@H]2O[C@@H](n3ccc(=O)[nH]c3=O)[C@](C)(N=[N+]=[N-])[C@@H]2O1 (stereo partly shown) [Compound 86] | > 100000
CCCOP1(=O)OC[C@H]2O[C@@H](n3ccc(=O)[nH]c3=O)[C@](C)(N=[N+]=[N-])[C@@H]2O1 (single isomer, unassigned) [Compound 565] | > 100000
CC(C)OP1(=O)OC[C@H]2O[C@@H](n3ccc(=O)[nH]c3=O)[C@](C)(N=[N+]=[N-])[C@@H]2O1 (stereo partly shown) [Compound 44] | > 100000
C[C@@]1(N=[N+]=[N-])[C@@H]2OP(=O)(OC3CCC3)OC[C@H]2O[C@H]1n1ccc(=O)[nH]c1=O (stereo partly shown) [Compound 84] | 51000

same assay, conditions: Hepatitis C virus, 72 h, HCV replicon 1b, cells harvested on day 3; read-out: 1b EC50

Structure (SMILES) | EC50 [nM]
CCOc1nc(N)nc2c1ncn2[C@@H]1O[C@@H]2COP(=O)(OC3CCCC3)O[C@H]2[C@@]1(C)N=[N+]=[N-] (stereo partly shown) [Compound 73] | 700

same assay, conditions: Hepatitis C virus, 72 h, read-out: 1b EC50

Structure (SMILES) | EC50 [nM]
CCCCOC(=O)[C@H](C)NP(=O)(OC[C@H]1O[C@@H](n2ccc(=O)[nH]c2=O)[C@](C)(N=[N+]=[N-])[C@@H]1O)Oc1ccc(Cl)cc1 (stereo partly shown) [Compound 369] | 500
Cc1ccc(C(C)C)cc1OP(=O)(N[C@@H](C)C(=O)OC(C)C)OC[C@H]1O[C@@H](n2ccc(=O)[nH]c2=O)[C@](C)(N=[N+]=[N-])[C@@H]1O (stereo partly shown) [Compound 177] | 12000
CCCOC(=O)[C@H](C)NP(=O)(OC[C@H]1O[C@@H](n2cnc3c(OC)nc(N)nc32)[C@](C)(N=[N+]=[N-])C1O)Oc1ccccc1 (single isomer, unassigned) [Compound 287] | 900
CCOC(=O)[C@H](C)NP(=O)(OC[C@H]1O[C@@H](n2cnc3c(OC)nc(N)nc32)[C@](C)(N=[N+]=[N-])[C@@H]1O)Oc1ccc(Cl)cc1 (single isomer, unassigned) [Compound 238] | 1200
CCCCOC(=O)[C@H](C)NP(=O)(OC[C@H]1O[C@@H](n2cnc3c(OCC)nc(N)nc32)[C@](C)(N=[N+]=[N-])[C@@H]1O)Oc1ccc2c(c1)OCO2 (stereo partly shown) [Compound 371] | 1400
CCCCOC(=O)[C@H](C)NP(=O)(OC[C@H]1O[C@@H](n2cnc3c(OCC)nc(N)nc32)[C@](C)(N=[N+]=[N-])[C@@H]1O)Oc1cccc2ccccc12 (single isomer, unassigned) [Compound 171] | 500
CCCOC(=O)[C@H](C)NP(=O)(OC[C@H]1O[C@@H](n2cnc3c(OCC)nc(N)nc32)[C@](C)(N=[N+]=[N-])[C@@H]1O)Oc1ccccc1 (single isomer, unassigned) [Compound 163] | 1100
C[C@H](NP(=O)(OC[C@H]1O[C@@H](n2ccc(=O)[nH]c2=O)[C@](C)(N=[N+]=[N-])[C@@H]1O)Oc1ccccc1)C(=O)O[C@H](C)c1ccccc1 (single isomer, unassigned) [Compound 302] | 24900
CCCC(CCC)COC(=O)[C@H](C)NP(=O)(OC[C@H]1O[C@@H](n2ccc(=O)[nH]c2=O)[C@](C)(N=[N+]=[N-])[C@@H]1O)Oc1ccccc1 (stereo partly shown) [Compound 328] | 2100
COC(=O)[C@H](C)NP(=O)(OC[C@H]1O[C@@H](n2ccc(=O)[nH]c2=O)[C@](C)(N=[N+]=[N-])[C@@H]1O)Oc1cccc2ccccc12 (stereo partly shown) [Compound 41] | 3
CCCOC(=O)[C@H](C)N[P@](=O)(OC[C@H]1O[C@@H](n2ccc(=O)[nH]c2=O)[C@](C)(N=[N+]=[N-])[C@@H]1O)Oc1cccc2ccccc12 (single isomer, unassigned) [Compound 376] | 2200
COP1(=O)OC[C@H]2O[C@@H](n3ccc(=O)[nH]c3=O)[C@](C)(N=[N+]=[N-])[C@@H]2O1 (stereo partly shown) [Compound 18] | > 100000
C[C@H](NP(=O)(OC[C@H]1O[C@@H](n2ccc(=O)[nH]c2=O)[C@](C)(N=[N+]=[N-])[C@@H]1O)Oc1ccccc1)C(=O)OC1CCCCC1 (stereo partly shown) [Compound 144] | 700
CCOc1nc(N)nc2c1ncn2[C@@H]1O[C@H](COP(=O)(N[C@@H](C)C(=O)OC)Oc2ccccc2Cl)[C@@H](O)[C@@]1(C)N=[N+]=[N-] (single isomer, unassigned) [Compound 309] | 570
CCOC(=O)[C@H](C)NP(=O)(OC[C@H]1O[C@@H](n2cnc3c(OCC)nc(N)nc32)[C@](C)(N=[N+]=[N-])[C@@H]1O)Oc1ccccc1Cl (stereo partly shown) [Compound 349] | 2000
CCCCOC(=O)[C@H](C)NP(=O)(OC[C@H]1O[C@@H](n2cnc3c(OCC)nc(N)nc32)[C@](C)(N=[N+]=[N-])[C@@H]1O)Oc1ccccc1 (single isomer, unassigned) [Compound 167] | 1200
CCCCOC(=O)[C@H](C)NP(=O)(OC[C@H]1O[C@@H](n2ccc(N)nc2=O)[C@](C)(N=[N+]=[N-])[C@@H]1O)Oc1cccc2ccccc12 (stereo partly shown) [Compound 3] | 1200
COC(=O)[C@H](C)NP(=O)(OC[C@H]1O[C@@H](n2cnc3c(OC)nc(N)nc32)[C@](C)(N=[N+]=[N-])[C@@H]1O)Oc1ccc(Cl)cc1 (single isomer, unassigned) [Compound 258] | 800
C[C@H](NP(=O)(OC[C@H]1O[C@@H](n2ccc(N)nc2=O)[C@](C)(N=[N+]=[N-])[C@@H]1O)Oc1ccccc1)C(=O)OC1CCCC1 (stereo partly shown) [Compound 97] | 15000
CCOc1nc(N)nc2c1ncn2[C@@H]1O[C@H](COP(=O)(N[C@@H](C)C(=O)OC2CCCCC2)Oc2ccc(Cl)cc2)[C@@H](O)[C@@]1(C)N=[N+]=[N-] (stereo partly shown) [Compound 307] | 33000
CCCCOC(=O)[C@H](C)NP(=O)(OC[C@H]1O[C@@H](n2ccc(N)nc2=O)[C@](C)(N=[N+]=[N-])[C@@H]1O)Oc1ccccc1 (stereo partly shown) [Compound 31] | 4900

same assay, conditions: read-out: 1b EC50

Structure (SMILES) | EC50 [nM]
COc1nc(N)nc2c1ncn2[C@@H]1O[C@H](COP(=O)(N[C@@H](C)C(=O)OC(C)C)Oc2ccccc2Cl)[C@@H](O)[C@@]1(C)N=[N+]=[N-] (single isomer, unassigned) [Compound 280] | 5000
CCOc1nc(N)nc2c1ncn2[C@@H]1O[C@H](COP(=O)(N[C@@H](C)C(=O)OC2CCC2)Oc2ccccc2)[C@@H](O)[C@@]1(C)N=[N+]=[N-] (single isomer, unassigned) [Compound 363] | 200
CCOC(=O)[C@H](C)NP(=O)(OC[C@H]1O[C@@H](n2cnc3c(OC)nc(N)nc32)[C@](C)(N=[N+]=[N-])[C@@H]1O)Oc1ccccc1 (stereo partly shown) [Compound 54] | 300
CC(C)OC(=O)[C@H](C)NP(=O)(OC[C@H]1O[C@@H](n2ccc(N)nc2=O)[C@](C)(N=[N+]=[N-])[C@@H]1O)Oc1ccc2c(c1)OCO2 (single isomer, unassigned) [Compound 334] | 13000
COC(=O)[C@H](C)NP(=O)(OC[C@H]1O[C@@H](n2ccc(N)nc2=O)[C@](C)(N=[N+]=[N-])[C@@H]1O)Oc1ccc(Cl)cc1 (single isomer, unassigned) [Compound 186] | 2000
CC(C)OC(=O)[C@H](C)NP(=O)(OC[C@H]1O[C@@H](n2ccc(N)nc2=O)[C@](C)(N=[N+]=[N-])[C@@H]1O)Oc1ccccc1Cl (single isomer, unassigned) [Compound 203] | 20000
CCCCOC(=O)[C@H](C)NP(=O)(OC[C@H]1O[C@@H](n2ccc(=O)[nH]c2=O)[C@](C)(N=[N+]=[N-])[C@@H]1O)Oc1cccc2ccccc12 (single isomer, unassigned) [Compound 156] | 1500
COC(=O)[C@H](C)NP(=O)(OC[C@H]1O[C@@H](n2ccc(N)nc2=O)[C@](C)(N=[N+]=[N-])[C@@H]1O)Oc1ccc(Cl)c(Cl)c1 (single isomer, unassigned) [Compound 193] | 61000
C[C@H](NP(=O)(OC[C@H]1O[C@@H](n2ccc(N)nc2=O)[C@](C)(N=[N+]=[N-])[C@@H]1O)Oc1ccc(Cl)cc1)C(=O)OC1CCCCC1 (single isomer, unassigned) [Compound 340] | 20000
COC(=O)[C@H](C)NP(=O)(OC[C@H]1O[C@@H](n2cnc3c(OC)nc(N)nc32)[C@](C)(N=[N+]=[N-])[C@@H]1O)Oc1ccc(Cl)cc1 (single isomer, unassigned) [Compound 259] | 600
COC(=O)[C@H](C)NP(=O)(OC[C@H]1O[C@@H](n2ccc(N)nc2=O)[C@](C)(N=[N+]=[N-])[C@@H]1O)Oc1ccc(Cl)c(Cl)c1 (single isomer, unassigned) [Compound 344] | 35000
COC(=O)[C@H](C)NP(=O)(OC[C@H]1O[C@@H](n2ccc(N)nc2=O)[C@](C)(N=[N+]=[N-])[C@@H]1O)Oc1ccc(F)cc1 (single isomer, unassigned) [Compound 187] | 22000
CCOc1nc(N)nc2c1ncn2[C@@H]1O[C@H](COP(=O)(N[C@@H](C)C(=O)OCC(C)(C)C)Oc2ccccc2)[C@@H](O)[C@@]1(C)N=[N+]=[N-] (single isomer, unassigned) [Compound 160] | 6800
COC(=O)[C@H](C)NP(=O)(OC[C@H]1O[C@@H](n2cnc3c(OC)nc(N)nc32)[C@](C)(N=[N+]=[N-])C1O)Oc1cccc2ccccc12 (single isomer, unassigned) [Compound 255] | 1200
COC(=O)[C@H](C)NP(=O)(OC[C@H]1O[C@@H](n2ccc(=O)[nH]c2=O)[C@](C)(N=[N+]=[N-])[C@@H]1O)Oc1ccc(Cl)cc1 (single isomer, unassigned) [Compound 326] | 500
COC(=O)[C@H](C)NP(=O)(OC[C@H]1O[C@@H](n2ccc(=O)[nH]c2=O)[C@](C)(N=[N+]=[N-])[C@@H]1O)Oc1ccccc1 (single isomer, unassigned) [Compound 159] | 6200
COC(=O)[C@H](C)NP(=O)(OC[C@H]1O[C@@H](n2ccc(N)nc2=O)[C@](C)(N=[N+]=[N-])[C@@H]1O)Oc1ccc(Cl)c(Cl)c1 (single isomer, unassigned) [Compound 194] | 35000
CCOC(=O)[C@H](C)NP(=O)(OC[C@H]1O[C@@H](n2cnc3c(OC)nc(N)nc32)[C@](C)(N=[N+]=[N-])[C@@H]1O)Oc1ccc(F)cc1 (single isomer, unassigned) [Compound 271] | 4400
CCCCOC(=O)[C@H](C)NP(=O)(OC[C@H]1O[C@@H](n2ccc(=O)[nH]c2=O)[C@](C)(N=[N+]=[N-])[C@@H]1O)Oc1ccccc1 (single isomer, unassigned) [Compound 169] | 3500
C[C@H](NP(=O)(OC[C@H]1O[C@@H](n2ccc(=O)[nH]c2=O)[C@](C)(N=[N+]=[N-])[C@@H]1O)Oc1ccc(F)cc1)C(=O)OC1CCCCC1 (stereo partly shown) [Compound 90] | 2100
